Test results reported in patent publication US9695155B2, “Herbicidal substituted pyrimidinyloxy benzene compounds” (E. I. DU PONT DE NEMOURS AND COMPANY, priority 2013, dated 2017).

Assays:
velvetleaf [1] = test: Test C preemergence; type: in vivo, Abutilon theophrasti; details: for Velvetleaf plant response rating: preemergence; for Plant response rating, Velvetleaf: Preemergence, 31 g ai/ha, scale 0 to 100, 0 no effect, 100 complete control
In short: (§1)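 Seeds are planted in blended loam soil and sand and treated preemergence, while seedlings in a peat moss/vermiculite medium receive postemergence sprays at 2 to 18 cm height. All plants stay in the greenhouse for 13 to 15 days before visual comparison with controls on a 0–100 scale.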

soybean = test: Test C postemergence; type: in vivo, Glycine max; details: for Plant response rating, Soybean: scale 0 to 100 (0 no effect, 100 complete control)
In short: as §1

large (Lg) crabgrass [2] = test: Test C preemergence; type: in vivo, Digitaria sanguinalis; details: for Crabgrass, Large plant response rating: preemergence; for Plant response rating, Crabgrass, Large: Preemergence, 31 g ai/ha, scale 0 to 100, 0 no effect, 100 complete control
In short: as §1

large (Lg) crabgrass [3] = test: Test C postemergence; type: in vivo, Digitaria sanguinalis
In short: as §1

sedge, umbrella = test: Test B flooded paddy test; type: in vivo, Cyperus difformis; details: Flood, 250 g ai/ha; 0 to 100 scale where 0 is no effect and 100 is complete control
In short: (§2)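 Seedlings are raised to two leaves, flooded to a depth of 3 cm and dosed by adding the compound to the floodwater. Water level is kept constant, and plants are scored visually versus controls 13–15 days later (0 = no effect, 100 = complete control).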

corn = test: Test A postemergence; type: in vivo, Zea mays
In short: (§3)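 Compounds in non-phytotoxic solvent with surfactant applied as soil spray preemergence, or postemergence to plants 2-10 cm at one- to two-leaf stage, in loam/sand. After approximately 10 days in greenhouse, injury rated visually versus untreated controls, 0 (no effect) to 100 (complete control).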

lambsquarters = test: Test C postemergence; type: in vivo, Chenopodium album; details: for Plant response rating, Lambsquarters: scale 0 to 100 (0 no effect, 100 complete control)
In short: as §1

galium = test: Test C preemergence; type: in vivo, Galium aparine; details: for Galium plant response rating: preemergence; for Plant response rating, Galium: Preemergence, 31 g ai/ha, scale 0 to 100, 0 no effect, 100 complete control
In short: as §1

johnsongrass = test: Test C preemergence; type: in vivo, Sorghum halepense; details: for Johnsongrass plant response rating: preemergence; for Plant response rating, Johnsongrass: Preemergence, 31 g ai/ha, scale 0 to 100, 0 no effect, 100 complete control
In short: as §1

rice = test: Test B flooded paddy test; type: in vivo, Oryza sativa; details: Flood, 250 g ai/ha; 0 to 100 scale where 0 is no effect and 100 is complete control
In short: as §2

velvetleaf [4] = test: Test C postemergence; type: in vivo, Abutilon theophrasti; details: for Plant response rating, Velvetleaf: scale 0 to 100 (0 no effect, 100 complete control)
In short: as §1

waterhemp = test: Test C postemergence; type: in vivo, Amaranthus rudis; details: for Plant response rating, Waterhemp: scale 0 to 100 (0 no effect, 100 complete control)
In short: as §1

barnyardgrass [5] = test: Test A preemergence; type: in vivo, Echinochloa crus-galli; details: for Plant response rating, Barnyardgrass: 125 g ai/ha; for Barnyardgrass plant response rating: 500 g ai/ha
In short: as §3

barnyardgrass [6] = test: Test A postemergence; type: in vivo, Echinochloa crus-galli
In short: as §3

oilseed rape = test: Test C postemergence; type: in vivo, Brassica napus; details: for Plant response rating, Oilseed Rape: scale 0 to 100 (0 no effect, 100 complete control)
In short: as §1

[7] = 16 g ai/ha, scale 0 to 100 (0 no effect, 100 complete control)
[8] = 62 g ai/ha, scale 0 (no effect) to 100 (complete control)
[9] = 125 g ai/ha, scale 0 (no effect) to 100 (complete control)
[10] = Postemergence, 31 g ai/ha, 13 to 15 days
[11] = Postemergence, 31 g ai/ha, scale 0 to 100 (0 no effect, 100 complete control), 13 to 15 days
[12] = Postemergence, 62 g ai/ha, scale 0 to 100 (0 no effect, 100 complete control)
[13] = 125 g ai/ha, 0 to 100 scale where 0 is no effect and 100 is complete control
[14] = 500 g ai/ha, 0 to 100 scale where 0 is no effect and 100 is complete control
[15] = 0 to 100 scale where 0 is no effect and 100 is complete control
[16] = 0 to 100 scale, 0 no effect, 100 complete control, approx. 10 days
[17] = 16 g ai/ha, postemergence, 0 is no effect, 100 is complete control
[18] = 125 g ai/ha, postemergence, visual rating
[19] = 250 g ai/ha, scale 0 (no effect) to 100 (complete control)
[20] = 500 g ai/ha, 0 to 100 scale, 0 no effect, 100 complete control

N#Cc1cccc(Oc2ncc(F)cn2)c1-n1cc(I)cn1 [Compound 86]
Velvetleaf plant response rating (velvetleaf [1]; [7]): 20 | Velvetleaf plant response rating (velvetleaf [1]; [8]): 100 | Velvetleaf plant response rating (velvetleaf [1]; [9]): 100 | Plant response rating, Velvetleaf (velvetleaf [1]): 50 | Plant response rating (0 to 100), Soybean (soybean; 125 g ai/ha, postemergence): 75 | Plant response rating, Soybean (soybean; [10]): 60 | Plant response rating, Soybean (soybean; Postemergence, 62 g ai/ha): 70 | Crabgrass, Large plant response rating (large (Lg) crabgrass [2]; [7]): 85 | Crabgrass, Large plant response rating (large (Lg) crabgrass [2]; [8]): 100 | Crabgrass, Large plant response rating (large (Lg) crabgrass [2]; [9]): 100 | Plant response rating, Crabgrass, Large (large (Lg) crabgrass [2]): 100 | Crabgrass, Large plant response rating (large (Lg) crabgrass [3]; 16 g ai/ha, postemergence, visual rating, scale 0 to 100 (0 no effect, 100 complete control), 13 to 15 days): 5 | Plant response rating (0 to 100), Crabgrass, Large (large (Lg) crabgrass [3]; 125 g ai/ha, postemergence): 5 | Plant response rating, Crabgrass, Large (large (Lg) crabgrass [3]; [11]): 5 | Plant response rating, Crabgrass, Large (large (Lg) crabgrass [3]; [12]): 5 | Plant response rating, Sedge, Umbrella (sedge, umbrella): 65 | Plant response rating, Corn (corn; [13]): 50 | Plant response rating, Corn (corn; [14]): 100 | Plant response rating (0 to 100), Lambsquarters (lambsquarters; 125 g ai/ha, postemergence): 85 | Plant response rating, Lambsquarters (lambsquarters; [10]): 45 | Plant response rating, Lambsquarters (lambsquarters; Postemergence, 62 g ai/ha): 65 | Galium plant response rating (galium; [7]): 90 | Galium plant response rating (galium; [8]): 98 | Galium plant response rating (galium; [9]): 90 | Plant response rating, Galium (galium): 80 | Johnsongrass plant response rating (johnsongrass; [7]): 10 | Johnsongrass plant response rating (johnsongrass; [8]): 60 | Johnsongrass plant response rating (johnsongrass; [9]): 95 | Plant response rating, Johnsongrass (johnsongrass): 20 | Plant response rating, Rice (rice): 0 | Plant response rating (0 to 100), Velvetleaf (velvetleaf [4]; 125 g ai/ha, postemergence): 65 | Plant response rating, Velvetleaf (velvetleaf [4]; [10]): 25 | Plant response rating, Velvetleaf (velvetleaf [4]; Postemergence, 62 g ai/ha): 65 | Plant response rating (0 to 100), Waterhemp (waterhemp; 125 g ai/ha, postemergence): 75 | Plant response rating, Waterhemp (waterhemp; [10]): 70 | Plant response rating, Waterhemp (waterhemp; Postemergence, 62 g ai/ha): 60 | Plant response rating, Barnyardgrass (barnyardgrass [5]; [15]): 80 | Barnyardgrass plant response rating (barnyardgrass [5]; [16]): 100 | Plant response rating, Barnyardgrass (barnyardgrass [6]; [13]): 90 | Plant response rating, Barnyardgrass (barnyardgrass [6]; [14]): 100 | Plant response rating (0 to 100), Oilseed Rape (oilseed rape; 125 g ai/ha, postemergence): 45 | Plant response rating, Oilseed Rape (oilseed rape; [10]): 40 | Plant response rating, Oilseed Rape (oilseed rape; Postemergence, 62 g ai/ha): 60

Clc1cnc(Oc2cccc(Br)c2-n2cc(Br)nn2)nc1 [Compound 129]
Velvetleaf plant response rating (velvetleaf [1]; [7]): 35 | Velvetleaf plant response rating (velvetleaf [1]; [8]): 100 | Velvetleaf plant response rating (velvetleaf [1]; [9]): 100 | Plant response rating, Velvetleaf (velvetleaf [1]): 70 | Plant response rating (0 to 100), Soybean (soybean; [17]): 35 | Plant response rating, Soybean (soybean; [18]): 60 | Plant response rating, Soybean (soybean; Postemergence, 62 g ai/ha): 85 | Crabgrass, Large plant response rating (large (Lg) crabgrass [2]; [7]): 75 | Crabgrass, Large plant response rating (large (Lg) crabgrass [2]; [8]): 100 | Crabgrass, Large plant response rating (large (Lg) crabgrass [2]; [9]): 100 | Plant response rating, Crabgrass, Large (large (Lg) crabgrass [2]): 95 | Plant response rating (0 to 100), Crabgrass, Large (large (Lg) crabgrass [3]; [17]): 5 | Plant response rating, Crabgrass, Large (large (Lg) crabgrass [3]; 125 g ai/ha, postemergence, visual rating, scale 0 to 100 (0 no effect, 100 complete control)): 10 | Plant response rating, Crabgrass, Large (large (Lg) crabgrass [3]; [12]): 5 | Plant response rating, Sedge, Umbrella (sedge, umbrella): 65 | Corn plant response rating (corn; [13]): 30 | Plant response rating, Corn (corn; [14]): 50 | Plant response rating (0 to 100), Lambsquarters (lambsquarters; [17]): 35 | Plant response rating, Lambsquarters (lambsquarters; [18]): 85 | Plant response rating, Lambsquarters (lambsquarters; Postemergence, 62 g ai/ha): 80 | Galium plant response rating (galium; [7]): 50 | Galium plant response rating (galium; [8]): 95 | Galium plant response rating (galium; [9]): 100 | Plant response rating, Galium (galium): 80 | Johnsongrass plant response rating (johnsongrass; [7]): 0 | Johnsongrass plant response rating (johnsongrass; [8]): 40 | Johnsongrass plant response rating (johnsongrass; [9]): 90 | Plant response rating, Johnsongrass (johnsongrass): 10 | Plant response rating, Rice (rice): 0 | Plant response rating (0 to 100), Velvetleaf (velvetleaf [4]; [17]): 15 | Plant response rating, Velvetleaf (velvetleaf [4]; [18]): 40 | Plant response rating, Velvetleaf (velvetleaf [4]; Postemergence, 62 g ai/ha): 40 | Plant response rating (0 to 100), Waterhemp (waterhemp; [17]): 65 | Plant response rating, Waterhemp (waterhemp; [18]): 85 | Plant response rating, Waterhemp (waterhemp; Postemergence, 62 g ai/ha): 65 | Plant response rating, Barnyardgrass (barnyardgrass [5]; [15]): 70 | Barnyardgrass plant response rating (barnyardgrass [5]; [15]): 90 | Barnyardgrass plant response rating (barnyardgrass [6]; [13]): 90 | Plant response rating, Barnyardgrass (barnyardgrass [6]; [14]): 90 | Plant response rating (0 to 100), Oilseed Rape (oilseed rape; [17]): 5 | Plant response rating, Oilseed Rape (oilseed rape; [18]): 60 | Plant response rating, Oilseed Rape (oilseed rape; Postemergence, 62 g ai/ha): 60

N#Cc1cccc(Oc2ncc(F)cn2)c1-n1cc(Cl)cn1 [Compound 73]
Velvetleaf plant response rating (velvetleaf [1]; [8]): 75 | Velvetleaf plant response rating (velvetleaf [1]; [9]): 100 | Velvetleaf plant response rating (velvetleaf [1]; [19]): 100 | Plant response rating, Velvetleaf (velvetleaf [1]): 60 | Plant response rating (0 to 100), Soybean (soybean; 125 g ai/ha, postemergence): 80 | Plant response rating (0 to 100), Soybean (soybean; 250 g ai/ha, postemergence): 90 | Plant response rating, Soybean (soybean; [10]): 40 | Plant response rating, Soybean (soybean; Postemergence, 62 g ai/ha): 70 | Crabgrass, Large plant response rating (large (Lg) crabgrass [2]; [8]): 100 | Crabgrass, Large plant response rating (large (Lg) crabgrass [2]; [9]): 100 | Crabgrass, Large plant response rating (large (Lg) crabgrass [2]; [19]): 100 | Plant response rating, Crabgrass, Large (large (Lg) crabgrass [2]): 100 | Plant response rating (0 to 100), Crabgrass, Large (large (Lg) crabgrass [3]; 125 g ai/ha, postemergence): 10 | Plant response rating (0 to 100), Crabgrass, Large (large (Lg) crabgrass [3]; 250 g ai/ha, postemergence): 20 | Plant response rating, Crabgrass, Large (large (Lg) crabgrass [3]; [11]): 5 | Plant response rating, Crabgrass, Large (large (Lg) crabgrass [3]; [12]): 10 | Plant response rating, Sedge, Umbrella (sedge, umbrella): 85 | Plant response rating, Corn (corn; [13]): 40 | Plant response rating, Corn (corn; [20]): 80 | Plant response rating (0 to 100), Lambsquarters (lambsquarters; 125 g ai/ha, postemergence): 70 | Plant response rating (0 to 100), Lambsquarters (lambsquarters; 250 g ai/ha, postemergence): 80 | Plant response rating, Lambsquarters (lambsquarters; [10]): 25 | Plant response rating, Lambsquarters (lambsquarters; Postemergence, 62 g ai/ha): 55 | Galium plant response rating (galium; [8]): 90 | Galium plant response rating (galium; [9]): 90 | Galium plant response rating (galium; [19]): 95 | Plant response rating, Galium (galium): 85 | Johnsongrass plant response rating (johnsongrass; [8]): 35 | Johnsongrass plant response rating (johnsongrass; [9]): 75 | Johnsongrass plant response rating (johnsongrass; [19]): 98 | Plant response rating, Johnsongrass (johnsongrass): 10 | Plant response rating, Rice (rice): 0 | Plant response rating (0 to 100), Velvetleaf (velvetleaf [4]; 125 g ai/ha, postemergence): 50 | Plant response rating (0 to 100), Velvetleaf (velvetleaf [4]; 250 g ai/ha, postemergence): 70 | Plant response rating, Velvetleaf (velvetleaf [4]; [10]): 30 | Plant response rating, Velvetleaf (velvetleaf [4]; Postemergence, 62 g ai/ha): 30 | Plant response rating (0 to 100), Waterhemp (waterhemp; 125 g ai/ha, postemergence): 75 | Plant response rating (0 to 100), Waterhemp (waterhemp; 250 g ai/ha, postemergence): 90 | Plant response rating, Waterhemp (waterhemp; [10]): 50 | Plant response rating, Waterhemp (waterhemp; Postemergence, 62 g ai/ha): 60 | Plant response rating, Barnyardgrass (barnyardgrass [5]; [15]): 90 | Barnyardgrass plant response rating (barnyardgrass [5]; [16]): 100 | Plant response rating, Barnyardgrass (barnyardgrass [6]; [13]): 90 | Plant response rating, Barnyardgrass (barnyardgrass [6]; [20]): 90 | Plant response rating (0 to 100), Oilseed Rape (oilseed rape; 125 g ai/ha, postemergence): 60 | Plant response rating (0 to 100), Oilseed Rape (oilseed rape; 250 g ai/ha, postemergence): 80 | Plant response rating, Oilseed Rape (oilseed rape; [10]): 10 | Plant response rating, Oilseed Rape (oilseed rape; Postemergence, 62 g ai/ha): 30
